Results as given in US20100047294A1, “SEMI-FINISHED PRODUCT IN THE MANUFACTURE OF A COMPOSITION FOR SKIN OR HAIR CARE” (OY GRANULA AB LTD, priority 2006, published 2010).
Like-named read-outs stand apart in the source and are kept apart here.

Experiments:
[1] = Ability to capture free radicals (statements in words)
[2] = extracts from knot wood of the tree trunk; compared with Trolox; lower value = better capture; cited from earlier work

Which “ability to capture free radicals, in words” value [1] does the source give for `COc1cc(C[C@H]2COC(=O)C2C(=O)c2ccc(O)c(OC)c2)ccc1O` (some centres unmarked) [7-oxomatairesinol] here?
The value was “even better than that of hydroxymatairesinol”.

What about the “ability to capture free radicals, in words” value ([1]; listed as Oxomatairesinol) of the same compound?
The value was “comparable to that of hydroxymatairesinol or even better”.

And the “ability to capture free radicals, in words” value ([1]; listed as oxomatairesinol)?
Its value is “relatively good in capturing the free radicals”.

Which “Capture of peroxyl radicals in vitro” value [2] does the source give for `COc1cc([C@H]2c3cc(O)c(OC)cc3C[C@@H](CO)[C@@H]2CO)ccc1O` [cyclolariciresinol] here?
The value was 118 g/mol.

Which “ability to capture free radicals, in words” value [1] does the source give for `COc1cc(C[C@H]2C(=O)OC[C@@H]2[C@H](O)c2ccc(O)c(OC)c2)ccc1O` [hydroxymatairesinol] here?
Its value is “relatively good in capturing the free radicals”.

What about the “Capture of peroxyl radicals in vitro” value [2] of the same compound?
Its value is 179 g/mol.

Which “Capture of peroxyl radicals in vitro” value [2] does the source give for `COc1cc(C[C@H]2CO[C@H](c3ccc(O)c(OC)c3)[C@H]2CO)ccc1O` [lariciresinol] here?
The value was 370 g/mol.

With `COc1cc(C[C@H]2COC(=O)[C@@H]2Cc2ccc(O)c(OC)c2)ccc1O` [matairesinol] as the compound, how does the “Capture of peroxyl radicals in vitro” value [2] read?
Its value is 345 g/mol.

Which “Capture of peroxyl radicals in vitro” value [2] does the source give for `Oc1ccc([C@H]2Oc3c(ccc(O)c3O)[C@@H](O)[C@H]2O)cc1O` [melacasidine] here?
The value was 50 g/mol.

Which “Capture of peroxyl radicals in vitro” value [2] does the source give for `COc1cc(CC2COC(=O)C2(O)Cc2ccc(O)c(OC)c2)ccc1O` (centres unmarked) [nortrachelogenin] here?
The value was 169 g/mol.

For `COc1cc(C[C@@H](CO)[C@H](CO)Cc2ccc(O)c(OC)c2)ccc1O` [secoisolariciresinol], which “ability to capture free radicals, in words” value [1] is on record?
Its value is “relatively good in capturing the free radicals”.

Which “Capture of peroxyl radicals in vitro” value [2] does the source give for `Oc1ccc([C@H]2Oc3c(ccc(O)c3O)[C@@H](O)[C@H]2O)cc1` [teracasidine] here?
The value was 128 g/mol.

With `Cc1c(C)c2c(c(C)c1O)CCC(C)(C(=O)O)O2` (centres unmarked) [trolox, reference compound] as the compound, how does the “Capture of peroxyl radicals in vitro” value [2] read?
The value was 125 g/mol.

For pinoresinol, which “Capture of peroxyl radicals in vitro” value [2] is on record?
The value was 129 g/mol.
